Patent US11091441B2, “Solid state crystalline forms of a selective potassium channel modulator” (Xenon Pharmaceuticals Inc., priority 2019, dated 2021)
Where “and” joins values, the source holds several entries; their conditions need not be identical. Identical values can stand only once.

Key:
Type in all cases: physicochemical
[1] = Aqueous solubility of solid state forms (with post-solubility pH and XRPD of excess solid); conditions: for pH of the sample post-solubility: after aqueous solubility test; for solid form of excess solid post aqueous solubility analysis (XRPD): excess solid analyzed by XRPD
[2] = Gravimetric Vapour Sorption (GVS), hygroscopicity, with post-GVS XRPD; conditions: for GVS uptake: 25° C.; for solid form post-GVS (XRPD): material analyzed post-GVS by XRPD
Protocol: Approximately 10-20 mg of sample was placed into a mesh vapor sorption balance pan and loaded into an IGASorp Moisture Sorption Analyser balance by Hiden Analytical. The sample was subjected to a ramping profile from 40-90% relative humidity (RH) at 10% increments, maintaining the sample at each step until a stable weight had been achieved (98% step completion, minimum step length 30 minutes, maximum step length 60 minutes) at 25° C. After completion of the sorption cycle, the sample was dried using the same procedure to 0% RH, and finally taken back to the starting point of 40% RH, using the same parameters outlined above. Two complete cycles were performed. The weight change during the sorption/desorption cycles were plotted, allowing for the hygroscopic nature of the sample to be determined.

[3] = Variable temperature XRPD (VT-XRPD): polymorphic form at each temperature
Protocol: VT-XRPD analysis was carried out on a Philips X'Pert Pro Multipurpose diffractometer equipped with a temperature chamber. The samples were loaded onto the VT stage and scanned between 4 and 35.99 °2θ using Cu K radiation (α1 λ=1.54060 Å; α2=1.54443 Å; β=1.39225 Å; α1:α2 ratio=0.5) running in Bragg-Brentano geometry (step size 0.008 °2θ) using 40 kV/40 mA generator settings. Measurements were performed at various temperature profiles. Any holds at specific temperatures are described in the temperature profiles for individual samples.
In another embodiment, VT-XRPD analysis of Compound A Form 11 was carried out using the heating program below in Table 11.

[4] = Carr's index (powder flowability) of micronized material; conditions: micronized to d50≤3 μm and d90≤5 μm; for Flowability: class from Carr's index
Protocol: A widely-used metric for how well a powder flows is Carr's index (see, for example, Wang, Y. B. and Williams, R. O. III, “Powders” in Remington: Essentials of Pharmaceutics, Felton, L., ed., London: Pharmaceutical Press, 2013 at pp. 422-423). The bulk density of a powder is measured, along with its corresponding tapped density (after allowing the powder to be compressed in a standard tap density tester, such as the Gardco JV1000, Paul N. Gardner Company, Pompano Beach, Fla., according to a standard method such as that described in Chapter 616 of the United States Pharmacopeia). Once the bulk and tapped densities of a powder have been determined experimentally, Carr's index can be calculated from the following equation: Carr's index=(tapped density−bulk density)/tapped density×100.

[5] = Stability studies: seeded slurry trials, XRPD of the solid; conditions: substance used as seed material
Protocol: Samples of the Compound A Form slurries and the Compound A Form 11 slurries were taken for XRPD analysis after 24 hours at 40° C., after 2 hours at 5° C. and after 24 hours at 5° C.

[6] = 25° C., final scan after cooling from the top temperature

Row | pH of the sample post-solubility [1] | solid form of excess solid post aqueous solubility analysis (XRPD) [1] | hygroscopicity by GVS analysis [2] | solid form post-GVS (XRPD) [2] | VT-XRPD Polymorphic Form [3, 6] | VT-XRPD Polymorphic Form ([3]; 25° C., initial scan) | VT-XRPD Polymorphic Form ([3]; 50° C.) | VT-XRPD Polymorphic Form ([3]; 100° C.) | VT-XRPD Polymorphic Form ([3]; 160° C.) | VT-XRPD Polymorphic Form ([3]; 165° C.) | VT-XRPD Polymorphic Form ([3]; 170° C.) | VT-XRPD Polymorphic Form ([3]; 180° C.) | aqueous solubility [1] [µg/mL] | GVS uptake ([2]; at 90% RH) [%] | Carr's index [4] | Flowability [4] | Solid after 2 hours at 5° C. (XRPD) ([5]; slurry in 1-Propanol) | Solid after 24 hours at 5° C. (XRPD) ([5]; slurry in 1-Propanol) | Solid after 2 hours at 5° C. (XRPD) ([5]; slurry in Ethanol) | Solid after 24 hours at 5° C. (XRPD) ([5]; slurry in Ethanol) | Structure (SMILES) | further results
1 | 6.4 | Compound A Form 2 | slightly hygroscopic | Compound A Form 2 | Amorphous | Form 2 | Form 2 | Form 2 | Partially crystalline | Partially crystalline | Amorphous | Amorphous | – | – | – | – | – | – | – | – | Cc1cc(N2CCc3cc(F)ccc3C2)cc(C)c1NC(=O)CC(C)(C)C [Compound A Form 2, N-(4-(6-fluoro-3,4-dihydroisoquinolin-2(1H)-yl)-2,6-dimethylphenyl)-3,3-dimethylbutanamide] | solubility ([1]; water, thermodynamic from solid): < 100 µg/mL; GVS uptake ([2]; between 0-90% RH): 0.37%; VT-XRPD Polymorphic Form ([3]; 180° C. (post 10 minute hold)): Amorphous
2 | 7.3 | converted to Compound A Form 4 | slightly hygroscopic | Compound A Form 9 | Amorphous | Form 9 | Form 9 | Form 9 | – | Partially crystalline | Partially crystalline | Amorphous | < 100 | 0.8 | – | – | – | – | – | – | Cc1cc(N2CCc3cc(F)ccc3C2)cc(C)c1NC(=O)CC(C)(C)C [Compound A Form 9, N-(4-(6-fluoro-3,4-dihydroisoquinolin-2(1H)-yl)-2,6-dimethylphenyl)-3,3-dimethylbutanamide] | VT-XRPD Polymorphic Form ([3]; 150° C.): Form 9; VT-XRPD Polymorphic Form ([3]; 155° C.): Form change noted-Similar to Form 9
3 | – | – | – | – | – | – | – | – | – | – | – | – | – | – | 36 | very poor | – | – | – | – | Cc1cc(N2CCc3cc(F)ccc3C2)cc(C)c1NC(=O)CC(C)(C)C [Compound A, N-(4-(6-fluoro-3,4-dihydroisoquinolin-2(1H)-yl)-2,6-dimethylphenyl)-3,3-dimethylbutanamide] | –

Row | Structure (SMILES) | pH of the sample post-solubility [1] | solid form of excess solid post aqueous solubility analysis (XRPD) [1] | hygroscopicity by GVS analysis [2] | solid form post-GVS (XRPD) [2] | VT-XRPD Polymorphic Form [3, 6] | VT-XRPD Polymorphic Form ([3]; 25° C., initial scan) | VT-XRPD Polymorphic Form ([3]; 50° C.) | VT-XRPD Polymorphic Form ([3]; 100° C.) | VT-XRPD Polymorphic Form ([3]; 160° C.) | VT-XRPD Polymorphic Form ([3]; 165° C.) | VT-XRPD Polymorphic Form ([3]; 170° C.) | VT-XRPD Polymorphic Form ([3]; 180° C.) | aqueous solubility [1] [µg/mL] | GVS uptake ([2]; at 90% RH) [%] | Carr's index [4] | Flowability [4] | Solid after 2 hours at 5° C. (XRPD) ([5]; slurry in 1-Propanol) | Solid after 24 hours at 5° C. (XRPD) ([5]; slurry in 1-Propanol) | Solid after 2 hours at 5° C. (XRPD) ([5]; slurry in Ethanol) | Solid after 24 hours at 5° C. (XRPD) ([5]; slurry in Ethanol) | further results
4 | Cc1cc(N2CCc3cc(F)ccc3C2)cc(C)c1NC(=O)CC(C)(C)C [Compound A Form 4, N-(4-(6-fluoro-3,4-dihydroisoquinolin-2(1H)-yl)-2,6-dimethylphenyl)-3,3-dimethylbutanamide] | 6.3 and 4.9 | mixture of Compound A Form 4 and Compound A Form 11 | slightly hygroscopic | Compound A Form 4 | Form 9 | Form 4 | Form 4 | Form 4 | – | – | – | – | < 100 | 0.4 | 8 | excellent | Form 4 | Form 4 | Form 4 | Form 4 | VT-XRPD Polymorphic Form ([3]; 60° C.): Form 4; VT-XRPD Polymorphic Form ([3]; 70° C.): Form 4; VT-XRPD Polymorphic Form ([3]; 80° C.): Form 4; VT-XRPD Polymorphic Form ([3]; 95° C.): Form 4; VT-XRPD Polymorphic Form ([3]; 110° C. (5 minute hold)): Form 4 +; VT-XRPD Polymorphic Form ([3]; 120° C. (5 minute hold)): Form 4 +; VT-XRPD Polymorphic Form ([3]; 130° C. (5 minute hold)): Form 4 +; VT-XRPD Polymorphic Form ([3]; 140° C. (5 minute hold)): Form 9; Solid after 24 hours at 40° C. (XRPD) ([5]; slurry in 1-Propanol): Form 2 + 4; Solid after 24 hours at 40° C. (XRPD) ([5]; slurry in Ethanol): Form 4
5 | Cc1cc(N2CCc3cc(F)ccc3C2)cc(C)c1NC(=O)CC(C)(C)C [Compound A Form 11, N-(4-(6-fluoro-3,4-dihydroisoquinolin-2(1H)-yl)-2,6-dimethylphenyl)-3,3-dimethylbutanamide] | – | – | slightly hygroscopic | mixture of Compound A Form 4 and Compound A Form 11 | Amorphous | Form 11 | Form 11 | Form 11 | Partially crystalline | Partially crystalline | Partially crystalline | Partially crystalline | – | 0.5 | – | – | Form 4 | Form 4 | Form 4 | Form 4 | VT-XRPD Polymorphic Form ([3]; 150° C.): Form change; VT-XRPD Polymorphic Form ([3]; 155° C.): Partially crystalline; VT-XRPD Polymorphic Form ([3]; 190° C.): Amorphous; Solid after 24 hours at 40° C. (XRPD) ([5]; slurry in Ethanol): Form 2
